Experiments:
[1] = target: T1, human metastin receptor hOT7T175 (Homo sapiens, UniProt Q969F8, L364H); test: binding inhibiting activity: 125I-metastin (40-54) binding to cell membrane fraction of h175 KB34 cells; conditions: room temperature 60 minutes, read-out: binding inhibiting activity, represented by the IC50 value
T1 construct: encoding the entire length of human metastin receptor hOT7T175; expressed in transfected cells; host or cells: CHO/dhFr- cells (ATCC #CRL-9096) stably transfected with pAKKO-hOT7T175; clone h175-16 was used as whole cells for FLIPR
Protocol: cDNA fragments (SEQ ID NO: 2) encoding the entire length of human metastin receptor hOT7T175 were incorporated into expression vector pAKKO1.11H to produce animal cell expression plasmids pAKKO-hOT7T175. CHO/dhFr-cells (ATCC, #CRL-9096) were seeded onto 6 cm culture dishes (Becton Dickinson) at a density of 0.3×10^6 cells/dish, and cultured in the conditions of 48 hours, 37° C. and 5% CO2. 5 μg pAKKO-hOT7T175 plasmid DNA was transfected to the resultant cells by a known method (described in Example 3 of WO 00/24890) using the Cellphect Transfection Kit (Amersham, #27-9268-01). The DNA-transfected cells were cultured in the Dulbecco's modified Eagle medium (DMEM) (Sigma, #D6046) containing 10% dialyzed FBS (Biowest, #S180D), 1× Non-Essential Amino Acid (Invitrogen, #11140-050) and 50 μg/ml Gentamycin (Invitrogen, #15750-060; and cell strains stably expressing the plasmid genes were selected. The obtained 41 clones were treated with the FLIPR assay (in accordance with the method described in Example 3 of WO 00/24890), and the reactivity to the human metastin […] (Nos. 40 to 54 of the human metastin sequence; Peptide Institute, Inc., #4389-v) was evaluated. In the end, h175 KB34 cell strains were selected. By substantially the same method, h175-16 cell strains were also produced.
The h175 KB34 cells were cultured to be on the stage of 40-50% confluency using a cell factory (Nunc, #164327), and then cells were recovered in the following method.
First, the medium was disposed, and the cells were washed twice with 200 ml EDTA/PBS(−). Another 200 ml of EDTA/PBS(−) was added, and the cells were kept still for 20 minutes at room temperature until being peeled off. The cells were recovered into four 50 ml tubes (Becton Dickinson, #352070), and centrifuged (2,000 rpm, 10 min., 4° C.) by a reduced performance centrifuge (TOMY, RL-101). The supernatant was disposed, and the pellets in the four tubes were each suspended with 10 ml EDTA/PBS(−) and collected into one tube (Becton Dickinson, #352070). The pellet was further centrifuged (2,000 rpm, 10 min., 4° C.). The resultant pellet was suspended with 20 ml ice-cooled homogenizer buffer [10 mM NaHCO3, 2 mM EGTA, 0.2 mM magnesium acetate, 10 μg/ml Leupeptin (Peptide Institute, Inc., #4041), 10 μg/ml E-64 (Peptide Institute, Inc., # 4096), 100 μg/ml o-phenanthroline (Dojindo Laboratories), 90 μg/ml PMSF (Wako Pure Chemical Industries, Ltd.), 10 μg/ml Pepstatin A (Peptide Institute, Inc., #4397), pH7.3]. The cell suspension was homogenized 3 times, each for 30 seconds, using a Polytron homogenizer. The resultant homogenate was centrifuged (2,500 rpm, 10 min, 4° C.) using a high performance refrigerated centrifuge (Hitachi, Ltd., CR26H). The supernatant was recovered into a super-centrifuge tube, and super-centrifuged (30,000 rpm, 60 min, 4° C.) using a super-centrifuge (Hitachi, Ltd., SCP70H). 3 ml homogenizer buffer was added to the resultant pellet, and the pellet was suspended by pipetting. 3 ml glycerol (Wako Pure Chemical Industries, Ltd.) was added to the resultant suspension and diluted 2-folds. The resultant substance was used as a cell membrane fraction of the h175 KB34 cells. Each […] of the membrane fraction was put into a 1.5 ml tube (Eppendorf, #0030120.086), stored in a freezer (−30 C) so as not to be frozen, and used for a binding assay.
An assay buffer was prepared on the day of the test by adding, to each 100 ml of an assay basic buffer [20 mM Tris, 2.5 mM Magnesium Acetate, 2 mM EGTA, pH 7.4], 1 mg Leupeptin (Peptide Institute, Inc., 4041), 1 mg E-64 (Peptide Institute, Inc., 4096), 10 mg o-phenanthroline (Dojindo Laboratories), 9 mg PMSF (Wako Pure Chemical Industries, Ltd.) and 1 mg Pepstatin A (Peptide Institute, Inc., 4397). The prepared assay buffer was stored at 4° C. until being used. When the measurement was to be performed with no BSA, the above-described assay buffer was used. […]

T1 sequence (Q969F8 whole entry L364H): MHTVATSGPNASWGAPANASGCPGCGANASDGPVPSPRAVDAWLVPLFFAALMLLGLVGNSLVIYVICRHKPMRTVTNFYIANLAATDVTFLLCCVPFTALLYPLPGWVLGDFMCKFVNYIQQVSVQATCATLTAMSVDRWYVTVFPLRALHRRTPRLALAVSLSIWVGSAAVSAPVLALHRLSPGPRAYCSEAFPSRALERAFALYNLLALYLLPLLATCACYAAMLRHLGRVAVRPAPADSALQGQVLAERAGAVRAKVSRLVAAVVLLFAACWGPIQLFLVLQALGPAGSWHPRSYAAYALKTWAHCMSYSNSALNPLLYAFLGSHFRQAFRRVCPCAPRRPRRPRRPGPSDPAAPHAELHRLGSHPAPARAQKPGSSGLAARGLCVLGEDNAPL

Structure (SMILES)	IC50 [1] [µM]	melting point [°C]
CCNC(CC)CC(=O)Nc1cccc(-c2cc(-c3ccc(F)cc3O)nc(NC(=O)c3ccco3)c2C#N)c1.Cl (stereo not drawn) [Example 308, N-[3-cyano-4-(3-{[3-(ethylamino)pentanoyl]amino}phenyl)-6-(4-fluoro-2-hydroxyphenyl)pyridin-2-yl]-2-furamide hydrochloride]	≤ 10	233 to 238
CCN(C)CCC(=O)Nc1cccc(-c2cc(-c3ccc(F)cc3O)nc(NC(=O)c3ccco3)c2C#N)c1.Cl [Example 316, N-[3-cyano-4-{3-[(N-ethyl-N-methyl-β-alanyl)amino]phenyl}-6-(4-fluoro-2-hydroxyphenyl)pyridin-2-yl]-2-furamide hydrochloride]	≤ 10	223 to 224
CN(C)[C@@H]1CCCC[C@@H]1C(=O)Nc1cccc(-c2cc(-c3ccc(F)cc3O)nc(NC(=O)c3ccco3)c2C#N)c1.Cl [Example 286, N-{3-cyano-4-[3-({[(1S,2R)-2-(dimethylamino)cyclohexyl]carbonyl}amino)phenyl]-6-(4-fluoro-2-hydroxyphenyl)pyridin-2-yl}-2-furamide hydrochloride]	≤ 10	205 to 207
Cl.N#Cc1c(-c2cccc(C(=O)NCCCn3ccnc3)c2)cc(-c2ccc(Cl)cc2O)nc1NC(=O)c1ccco1 [Example 83, N-{6-(4-chloro-2-hydroxyphenyl)-3-cyano-4-[3-({[3-(1H-imidazol-1-yl)propyl]amino}carbonyl)phenyl]pyridin-2-yl}-2-furamide hydrochloride]	≤ 10	182 to 184
Cl.N#Cc1c(-c2cccc(NC(=O)C3CCNC3)c2)cc(-c2ccc(Cl)cc2O)nc1NC(=O)c1ccco1 (stereo not drawn) [Example 241, N-{3-[6-(4-chloro-2-hydroxyphenyl)-3-cyano-2-(2-furoylamino)pyridin-4-yl]phenyl}pyrrolidine-3-carboxamide hydrochloride]	≤ 10	226 to 235
CCN(CC)C(C)CC(=O)Nc1cccc(-c2cc(-c3ccc(F)cc3O)nc(NC(=O)c3ccco3)c2C#N)c1.Cl (stereo not drawn) [Example 339, N-[3-cyano-4-(3-{[3-(diethylamino)butanoyl]amino}phenyl)-6-(4-fluoro-2-hydroxyphenyl)pyridin-2-yl]-2-furamide hydrochloride]	≤ 10	193 to 195
CN(C)[C@H]1CCCC[C@H]1C(=O)Nc1cccc(-c2cc(-c3ccc(F)cc3O)nc(NC(=O)c3ccco3)c2C#N)c1.Cl [Example 287, N-{3-cyano-4-[3-({[(1R,2S)-2-(dimethylamino)cyclohexyl]carbonyl}amino)phenyl]-6-(4-fluoro-2-hydroxyphenyl)pyridin-2-yl}-2-furamide hydrochloride]	≤ 10	217 to 218
COc1ccccc1C(=O)Nc1nc(-c2ccc(F)cc2O)cc(-c2cccc(C(=O)NCCN)c2)c1C#N.Cl [Example 244, N-[4-(3-{[(2-aminoethyl)amino]carbonyl}phenyl)-3-cyano-6-(4-fluoro-2-hydroxyphenyl)pyridin-2-yl]-2-methoxybenzamide hydrochloride]	≤ 10	227 to 229
CCN(CC)[C@@H](COC)C(=O)Nc1cccc(-c2cc(-c3ccc(F)cc3O)nc(NC(=O)c3ccco3)c2C#N)c1.Cl [Example 306, N-[3-cyano-4-{3-[(N,N-diethyl-O-methyl-L-seryl)amino]phenyl}-6-(4-fluoro-2-hydroxyphenyl)pyridin-2-yl]-2-furamide hydrochloride]	≤ 10	192 to 196
CN1C[C@H](O)C[C@H]1C(=O)Nc1cccc(-c2cc(-c3ccc(F)cc3O)nc(NC(=O)c3ccco3)c2C#N)c1.Cl [Example 299, (4R)—N-{3-[3-cyano-6-(4-fluoro-2-hydroxyphenyl)-2-(2-furoylamino)pyridin-4-yl]phenyl}-4-hydroxy-1-methyl-L-prolinamide hydrochloride]	≤ 10	215 to 217
C[C@@H](N)CC(=O)Nc1cccc(-c2cc(-c3ccc(Cl)cc3O)nc(NC(=O)c3nccs3)c2C#N)c1.Cl [Example 270, N-[4-(3-{[(3R)-3-aminobutanoyl]amino}phenyl)-6-(4-chloro-2-hydroxyphenyl)-3-cyanopyridin-2-yl]-1,3-thiazole-2-carboxamide hydrochloride]	≤ 10	218 to 221
CCCC(CC(=O)Nc1cccc(-c2cc(-c3ccc(F)cc3O)nc(NC(=O)c3ccco3)c2C#N)c1)N(C)C.Cl (stereo not drawn) [Example 285, N-[3-cyano-4-(3-{[3-(dimethylamino)hexanoyl]amino}phenyl)-6-(4-fluoro-2-hydroxyphenyl)pyridin-2-yl]-2-furamide hydrochloride]	≤ 10	180 to 182
Cl.N#Cc1c(-c2cccc(C(=O)NCCN)c2)cc(-c2ccc(Cl)cc2O)nc1NC(=O)c1ccco1 [Example 86, N-[4-(3-{[(2-aminoethyl)amino]carbonyl}phenyl)-6-(4-chloro-2-hydroxyphenyl)-3-cyanopyridin-2-yl]-2-furamide hydrochloride]	≤ 10	252 to 255
C[C@H](N)CC(=O)Nc1cccc(-c2cc(-c3ccc(Cl)cc3O)nc(NC(=O)c3nccs3)c2C#N)c1.Cl [Example 269, N-[4-(3-{[(3S)-3-aminobutanoyl]amino}phenyl)-6-(4-chloro-2-hydroxyphenyl)-3-cyanopyridin-2-yl]-1,3-thiazole-2-carboxamide hydrochloride]	≤ 10	218 to 221
Cl.N#Cc1c(-c2cccc(C(=O)NC3CCNC3)c2)cc(-c2ccc(F)cc2O)nc1NC(=O)c1ccco1 (stereo not drawn) [Example 76, N-(3-cyano-6-(4-fluoro-2-hydroxyphenyl)-4-{3-[(pyrrolidin-3-ylamino)carbonyl]phenyl}pyridin-2-yl)-2-furamide hydrochloride]	≤ 10	225 to 226
CCC(CC(=O)Nc1cccc(-c2cc(-c3ccc(F)cc3O)nc(NC(=O)c3ccco3)c2C#N)c1)N(CC)CC.Cl (stereo not drawn) [Example 319, N-[3-cyano-4-(3-{[3-(diethylamino)pentanoyl]amino}phenyl)-6-(4-fluoro-2-hydroxyphenyl)pyridin-2-yl]-2-furamide hydrochloride]	≤ 10	171 to 175
Cl.N#Cc1c(-c2cccc(NC(=O)CCN)c2)cc(-c2ccc(F)cc2O)nc1NC(=O)c1ccco1 [Example 68, N-{4-[3-(β-alanylamino)phenyl]-3-cyano-6-(4-fluoro-2-hydroxyphenyl)pyridin-2-yl}-2-furamide hydrochloride]	≤ 10	269 to 270
Cl.N#Cc1c(-c2cccc(C(=O)N[C@H]3CCCC[C@H]3N)c2)cc(-c2ccc(F)cc2O)nc1NC(=O)c1ccco1 (racemic) [Example 280, N-{4-[3-({[(1SR,2RS)-2-aminocyclohexyl]amino}carbonyl)phenyl]-3-cyano-6-(4-fluoro-2-hydroxyphenyl)pyridin-2-yl}-2-furamide hydrochloride]	≤ 10	250 to 252
